Reference: patent US12157882B2, “Lactobacillus plantarum strain ATG-K2, ATG-K6 or ATG-K8, and composition for preventing or treating vaginitis comprising same” (ATOGEN CO., LTD, priority 2018, dated 2024)

Assays:
[1] = Heat resistance: viable cell count while bathing at 70° C. in a water bath; assay type: physicochemical
Description: In order to investigate the heat resistance of lactic-acid bacteria of the present disclosure, samples were obtained at 20 sec, 40 sec, 60 sec, and 80 sec while bathing at 70° C. in a water bath, a viable cell count was taken to thus determine resistance to heat, and the results thereof are shown in Table 2 below and in FIG. 2. In Table 2 and in FIG. 2, a viable cell count is represented as a Log10 CFU/ml value, and the number in parentheses represents the viability (%) compared to the initial count. Each result value is the average of three independent experiments.

[2] = tested on: sheep blood; assay type: cell-based
Description: In order to evaluate the presence or absence of hemolysis of lactic-acid bacteria in relation to safety of probiotics, K2, K6 and K8 strains were inoculated into a tryptic soybean agar (TSA, Difco Laboratories, USA) containing 5% sheep blood, and were then cultured at 37° C. for about 24 to 48 hr.

[3] = tested on: Escherichia coli KCTC1682 (EC); assay: Disc test, clear zone; assay type: cell-based; details: 35 μl culture solution on 8 mm paper disc, disc diameter subtracted; average of four tests
Description: (§1) In order to confirm the antimicrobial functionality of K2, K6 and K8, the antimicrobial activity of lactic-acid bacteria K2, K6 and K8 against a total of seven types of infectious or opportunistic bacteria, including four types of gram-positive SA, LM, SM, and SS and three types of gram-negative EC, PA, and CS, was determined by measuring clear zones through a disc test. Seven types of bacteria cultured overnight in a BHI plate medium were each suspended in 1× phosphate-buffered saline (PBS) until OD600 of about 0.8 was obtained. Each suspension was absorbed with a sterile cotton swab, spread over an agar medium for an antimicrobial activity test for lactic-acid bacteria, in which BHI and MRS were mixed at a ratio of 1:1, and dried for about 3 min. Each 8 mm paper disc (Advantec, Japan) was attached to the dried test agar medium, and 35 μl of each of K2, K6, and K8 solutions cultured in an MRS broth for about 18 to 20 hr was inoculated to the paper disc, dried for about 3 min, cultured at 37° C. and observed. The size of the clear zone formed after culture was determined in a manner in which the diameter thereof was measured and was calculated after subtracting 8 mm, which is the diameter of the paper disc. The unit for the diameter of the clear zone, which is each numerical value in Table 4, is mm, and each abbreviation is as follows: Staphylococcus aureus KCTC1621 (SA), Listeria monocytogenes KCTC3569 (LM), Streptococcus mutans KCTC3065 (SM), Streptococcus salivarius ATG-P1 (SS), Escherichia coli KCTC1682 (EC), Pseudomonas aeruginosa KCTC2004 (PA), Cronobacter sakazakii KCTC2949 (CS).

[4] = tested on: Listeria monocytogenes KCTC3569 (LM); assay: Disc test, clear zone; assay type: cell-based; details: 35 μl culture solution on 8 mm paper disc, disc diameter subtracted; average of four tests
Description: as §1

[5] = tested on: Streptococcus mutans KCTC3065 (SM); assay: Disc test, clear zone; assay type: cell-based; details: 35 μl culture solution on 8 mm paper disc, disc diameter subtracted; average of four tests
Description: as §1

[6] = tested on: Streptococcus salivarius ATG-P1 (SS); assay: Disc test, clear zone; assay type: cell-based; details: 35 μl culture solution on 8 mm paper disc, disc diameter subtracted; average of four tests
Description: as §1

[7] = Ability to produce hydrogen peroxide (tetramethylbenzidine MRS agar); details: anaerobic, 37° C., about 48-72 hr, color change after exposure to air
Description: For the ability to produce hydrogen peroxide as the function of each of the lactic-acid bacteria, an agar medium was prepared by adding 0.25 mg/ml of tetramethylbenzidine (Sigma-Aldrich, Germany) and […] to MRS (McGroarty et al., 1992). Here, the additives were added at about 50° C. after autoclaving of the MRS agar. Each of the lactic-acid bacteria was inoculated into the completely hardened test agar medium, placed in an anaerobic jar, and cultured at 37° C. for about 48-72 hr. After culture, the lactic-acid bacteria were taken out of the anaerobic jar and exposed to air, and the colony and the surrounding color change were observed.

[8] = tested on: Candida albicans KCTC7678 (CA); assay: Coaggregation of lactic-acid bacteria on vaginitis pathogen; assay type: cell-based; details: at 8 hr
Description: (§2) Briefly, lactic-acid bacteria and vaginitis pathogens were centrifuged at 13,000 rpm for 5 min and the supernatant was decanted, after which the precipitated microorganism cells were washed using 1×PBS. After washing was repeated twice, the microorganisms were each suspended using 1×PBS until an absorbance OD600 of 1.0 was obtained. The lactic-acid bacteria suspension and the vaginitis pathogens were mixed at the same volume ratio, homogenized through vortexing, and allowed to stand, after which the supernatant of the mixed solution was carefully obtained at 1, 4, and 8 hr, and the absorbance thereof was measured. The suspension without mixing the microorganisms was used as a control. Based on the measured absorbance, coaggregation was calculated using the following equation. Here, ODpatho represents the absorbance of the vaginitis pathogen, ODLAB represents the absorbance of the lactic-acid bacteria, and ODmix represents the absorbance of the mixed solution of microorganisms. Coaggregation (%)={(ODpatho+ODLAB)/2−ODmix}/(ODpatho+ODLAB)/2

[9] = tested on: Gardnerella vaginalis KCTC5096 (GV); assay: as above; assay type: cell-based; details: time given only for CA (8 hr)
Description: as §2

[10] = tested on: IL-6 in mouse macrophage cell line RAW264.7; assay: IL-6 ELISA, RAW264.7 cells treated with lactic-acid bacteria lysate; assay type: cell-based; details: lysate 100 μg/ml and 500 μg/ml, 24 hr
Description: In order to measure the immunological effects of K2, K6 and K8 lactic-acid bacteria, a cytokine quantification experiment using cells was performed. The cells that were used were a mouse macrophage cell line RAW264.7, and the medium used for each cell experiment was a Gibco® Dulbecco's Modified Eagle Medium (DMEM, Gibco, USA) supplemented with 10% fetal bovine serum (Gibco, USA) and 1% penicillin/streptomycin cocktail (Sigma-Aldrich, Germany). RAW264.7 cells cultured at about 80-90% confluency before material treatment were recovered and seeded in an amount of 1×10^6 cells per well of a 24-well plate. After seeding, culture was carried out in an environment of 37° C. and 5% CO2 for 24 hr in order to realize attachment to the 24-well plate and stabilization thereof. Each well was treated with the lactic-acid bacteria lysate at concentrations of 100 μg/ml and 500 μg/ml, and 1 μg/ml of lipopolysaccharide (LPS, Sigma-Aldrich, Germany) was used as a positive control, and an experimental group not treated with any material was used as a negative control. The cells were cultured at 37° C. and 5% CO2 for 24 hr after material treatment, and the cell culture solution was recovered, followed by enzyme-linked immunosorbent assay (ELISA) for IL-6 and TNF-α. Measurement was performed for IL-6 using a Mouse IL-6 Quantikine ELISA Kit (R&D systems, USA) and for TNF-α using a Mouse TNF-alpha Quantikine ELISA Kit (R&D systems, USA).

[11] = Initial, average of three independent experiments

Substance | viability compared to the initial count ([1]; 70° C. water bath, 20 sec) | viable cell count ([1]; 70° C. water bath, 20 sec) | viability compared to the initial count ([1]; 70° C. water bath, 40 sec) | viable cell count ([1]; 70° C. water bath, 40 sec) | viability compared to the initial count ([1]; 70° C. water bath, 60 sec) | viable cell count ([1]; 70° C. water bath, 60 sec) | viability compared to the initial count ([1]; 70° C. water bath, 60 sec, listed as K8) | viability compared to the initial count ([1]; Initial) | viable cell count [1, 11] | hemolysis and clear zones [2] | diameter of the clear zone EC [3] | diameter of the clear zone LM [4] | diameter of the clear zone SM [5] | diameter of the clear zone SS [6] | ability to produce hydrogen peroxide [7] | coaggregation with CA [8] | coaggregation with GV [9] | IL-6 production compared to the control [10] | viability compared to the initial count ([1]; 70° C. water bath, 60 sec, listed as K6) | viability compared to the initial count ([1]; 70° C. water bath, 60 sec, listed as K2)
Lactobacillus plantarum ATG-K8 [Lb. plantarum ATG-K8] | (89.67% | 9.49 Log10 CFU/ml | (75.26% | 9.41 Log10 CFU/ml | (74.32% | 9.41 Log10 CFU/ml | 74.32% | (100.00% | 9.55 Log10 CFU/ml | not observed | 3.50 ± 0.18 mm | 5.18 ± 0.21 mm | 3.88 ± 0.11 mm | 4.00 ± 0.18 mm | produced hydrogen peroxide | 57.88% | 20.45% | induced | – | –
Lactobacillus plantarum ATG-K6 [Lb. plantarum ATG-K6] | (97.27% | 9.43 Log10 CFU/ml | (87.46% | 9.38 Log10 CFU/ml | (68.88% | 9.28 Log10 CFU/ml | – | (100.00% | 9.44 Log10 CFU/ml | not observed | 3.50 ± 0.18 mm | 4.75 ± 0.13 mm | 4.13 ± 0.11 mm | 3.13 ± 0.11 mm | produced hydrogen peroxide | 58.57% | 30.39% | induced | 68.88% | –
Lactobacillus plantarum ATG-K2 [Lb. plantarum ATG-K2] | (109.65% | 8.99 Log10 CFU/ml | (91.33% | 8.92 Log10 CFU/ml | (70.95% | 8.80 Log10 CFU/ml | – | (100.00% | 8.95 Log10 CFU/ml | not observed | 3.38 ± 0.21 mm | 5.50 ± 0.18 mm | 4.75 ± 0.28 mm | 4.13 ± 0.11 mm | produced hydrogen peroxide | 70.73% | 32.72% | induced | – | 70.95%
